13 compounds from ChEMBL document CHEMBL5390218, “Benzimidazole derivatives as tubulin polymerization inhibitors: Design, synthesis and in vitro cytotoxicity studies” (Bioorg Med Chem Lett, 2023) can be followed below.

Bounds are passed on as bounds.

In one data set the test system is MCF7. Description: Anticancer activity against human MCF7 cells assessed as inhibition in cell growth measured after 72 hrs by MTT assay. The settings on record: MCF7, 72 h. It is filed as functional, cell-based. (In general: Tetrazolium dyes change colour on reduction, which living cells bring about.)
With `COc1cc(-c2nc3cc(C)ccc3[nH]2)ccc1OCC(=O)N1CCCC1`, the IC50 – broadly, the concentration that gives 50% inhibition – is more than 20 µM.
As for `COc1cc(-c2nc3cc(C)ccc3[nH]2)ccc1OCC(=O)N1CCc2ccccc21`, the IC50 was more than 20 µM.
On the same count and under the same terms, then `COc1cc(-c2nc3cc(F)ccc3[nH]2)ccc1OCC(=O)N1CCN(c2ncccn2)CC1`, with more than 20 µM; and `COc1ccc2[nH]c(-c3ccc(OCC(=O)N4CCCCC4)c(OC)c3)nc2c1`, with more than 20 µM; and `COc1ccc2[nH]c(-c3ccc(OCC(=O)N4CCc5ccccc5C4)c(OC)c3)nc2c1`, with 11 µM.
On the same count and under the same terms, the same measure for `COc1cc(-c2nc3cc(F)ccc3[nH]2)ccc1OCC(=O)N1CCN(C(=O)OC(C)(C)C)CC1`: more than 20 µM; for `COc1cc(-c2nc3cc(F)ccc3[nH]2)ccc1OCC(=O)N1CCc2ccccc2C1`: 14.7 µM; for `COc1ccc2[nH]c(-c3ccc(OCC(=O)N4CCN(c5ncccn5)CC4)c(OC)c3)nc2c1`: more than 20 µM.
Still for that read-out and setting: the same measure for `COc1ccc2[nH]c(-c3ccc(OCC(=O)N4CCc5ccccc54)c(OC)c3)nc2c1`: 7.78 µM; for `COc1cc(-c2nc3ccccc3[nH]2)ccc1OCC(=O)N1CCc2ccccc2C1`: more than 20 µM.
Turning to `COc1cc(-c2nc3cc(C)ccc3[nH]2)ccc1OCC(=O)N1CCCCC1`, the IC50 is more than 20 µM.
Still for that read-out and setting: the same measure for `COc1ccc2[nH]c(-c3ccc(OCC(=O)N4CCN(C(=O)OC(C)(C)C)CC4)c(OC)c3)nc2c1`: more than 20 µM; for `COc1cc(-c2nc3cc(C)ccc3[nH]2)ccc1OCC(=O)N1CCN(c2ncccn2)CC1`: 11.8 µM.

The subject of another data set is B16-F10. Description: Anticancer activity against mouse B16-F10 cells assessed as inhibition in cell growth measured after 72 hrs by MTT assay. It is filed as functional, cell-based. The settings on record: B16-F10, 72 h.
Take `COc1cc(-c2nc3cc(C)ccc3[nH]2)ccc1OCC(=O)N1CCCC1`: the IC50 is more than 20 µM.
On to `COc1cc(-c2nc3cc(C)ccc3[nH]2)ccc1OCC(=O)N1CCc2ccccc21`, for which the IC50 was 15.6 µM.
On the same count and under the same terms, then `COc1cc(-c2nc3cc(F)ccc3[nH]2)ccc1OCC(=O)N1CCN(c2ncccn2)CC1`, with 16.1 µM; and `COc1ccc2[nH]c(-c3ccc(OCC(=O)N4CCCCC4)c(OC)c3)nc2c1`, with more than 20 µM; and `COc1ccc2[nH]c(-c3ccc(OCC(=O)N4CCc5ccccc5C4)c(OC)c3)nc2c1`, with 4.96 µM.
Still for that read-out and setting: the same measure for `COc1cc(-c2nc3cc(F)ccc3[nH]2)ccc1OCC(=O)N1CCN(C(=O)OC(C)(C)C)CC1`: more than 20 µM; for `COc1cc(-c2nc3cc(F)ccc3[nH]2)ccc1OCC(=O)N1CCc2ccccc2C1`: more than 20 µM.
On the same count and under the same terms, the same measure for `COc1ccc2[nH]c(-c3ccc(OCC(=O)N4CCN(c5ncccn5)CC4)c(OC)c3)nc2c1`: 12.5 µM.
As for `COc1ccc2[nH]c(-c3ccc(OCC(=O)N4CCc5ccccc54)c(OC)c3)nc2c1`, the IC50 is 12.6 µM.
Still for that read-out and setting: then `COc1cc(-c2nc3ccccc3[nH]2)ccc1OCC(=O)N1CCc2ccccc2C1`, with more than 20 µM; and `COc1cc(-c2nc3cc(C)ccc3[nH]2)ccc1OCC(=O)N1CCCCC1`, with more than 20 µM.
With `COc1ccc2[nH]c(-c3ccc(OCC(=O)N4CCN(C(=O)OC(C)(C)C)CC4)c(OC)c3)nc2c1`, the concentration for half-maximal inhibition (IC50) was more than 20 µM.
On the same count and under the same terms, then `COc1cc(-c2nc3cc(C)ccc3[nH]2)ccc1OCC(=O)N1CCN(c2ncccn2)CC1`, with 8.53 µM.

For a further data set, the system named is HCT-116. The experiment in a line: Anticancer activity against human HCT-116 cells assessed as inhibition in cell growth measured after 72 hrs by MTT assay. In kind it is functional, cell-based. As to conditions: HCT-116, 72 h.
Regarding `COc1cc(-c2nc3cc(C)ccc3[nH]2)ccc1OCC(=O)N1CCCC1`, the IC50 is more than 20 µM.
The same measure, in the same setting: then `COc1cc(-c2nc3cc(C)ccc3[nH]2)ccc1OCC(=O)N1CCc2ccccc21`, with more than 20 µM; and `COc1cc(-c2nc3cc(F)ccc3[nH]2)ccc1OCC(=O)N1CCN(c2ncccn2)CC1`, with more than 20 µM; and `COc1ccc2[nH]c(-c3ccc(OCC(=O)N4CCCCC4)c(OC)c3)nc2c1`, with more than 20 µM.
With `COc1ccc2[nH]c(-c3ccc(OCC(=O)N4CCc5ccccc5C4)c(OC)c3)nc2c1`, the IC50 was 7.9 µM.
The same measure, in the same setting: then `COc1cc(-c2nc3cc(F)ccc3[nH]2)ccc1OCC(=O)N1CCN(C(=O)OC(C)(C)C)CC1`, with more than 20 µM; and `COc1cc(-c2nc3cc(F)ccc3[nH]2)ccc1OCC(=O)N1CCc2ccccc2C1`, with 10.1 µM; and `COc1ccc2[nH]c(-c3ccc(OCC(=O)N4CCN(c5ncccn5)CC4)c(OC)c3)nc2c1`, with more than 20 µM.
Same read-out and setting: the same measure for `COc1ccc2[nH]c(-c3ccc(OCC(=O)N4CCc5ccccc54)c(OC)c3)nc2c1`: 8.39 µM; for `COc1cc(-c2nc3ccccc3[nH]2)ccc1OCC(=O)N1CCc2ccccc2C1`: more than 20 µM; for `COc1cc(-c2nc3cc(C)ccc3[nH]2)ccc1OCC(=O)N1CCCCC1`: more than 20 µM.
On the same count and under the same terms, the same measure for `COc1ccc2[nH]c(-c3ccc(OCC(=O)N4CCN(C(=O)OC(C)(C)C)CC4)c(OC)c3)nc2c1`: more than 20 µM.
As for `COc1cc(-c2nc3cc(C)ccc3[nH]2)ccc1OCC(=O)N1CCN(c2ncccn2)CC1`, the IC50 amounted to 4.7 µM.

The subject of a further data set is A549. Description: Anticancer activity against human A549 cells assessed as inhibition in cell growth measured after 72 hrs by MTT assay. As to conditions: A549, 72 h. It is filed as functional, cell-based.
As to `COc1cc(-c2nc3cc(C)ccc3[nH]2)ccc1OCC(=O)N1CCCC1`, the IC50 is more than 20 µM.
Same read-out and setting: then `COc1cc(-c2nc3cc(C)ccc3[nH]2)ccc1OCC(=O)N1CCc2ccccc21`, with 6.89 µM; and `COc1cc(-c2nc3cc(F)ccc3[nH]2)ccc1OCC(=O)N1CCN(c2ncccn2)CC1`, with 14 µM.
The same measure, in the same setting: then `COc1ccc2[nH]c(-c3ccc(OCC(=O)N4CCCCC4)c(OC)c3)nc2c1`, with more than 20 µM; and `COc1ccc2[nH]c(-c3ccc(OCC(=O)N4CCc5ccccc5C4)c(OC)c3)nc2c1`, with 8.12 µM.
Same read-out and setting: then `COc1cc(-c2nc3cc(F)ccc3[nH]2)ccc1OCC(=O)N1CCN(C(=O)OC(C)(C)C)CC1`, with more than 20 µM; and `COc1cc(-c2nc3cc(F)ccc3[nH]2)ccc1OCC(=O)N1CCc2ccccc2C1`, with more than 20 µM.
For `COc1ccc2[nH]c(-c3ccc(OCC(=O)N4CCN(c5ncccn5)CC4)c(OC)c3)nc2c1`, the half-maximal inhibitory concentration (IC50) amounted to 8.35 µM.
The same measure, in the same setting: then `COc1ccc2[nH]c(-c3ccc(OCC(=O)N4CCc5ccccc54)c(OC)c3)nc2c1`, with 8.05 µM; and `COc1cc(-c2nc3ccccc3[nH]2)ccc1OCC(=O)N1CCc2ccccc2C1`, with more than 20 µM; and `COc1cc(-c2nc3cc(C)ccc3[nH]2)ccc1OCC(=O)N1CCCCC1`, with more than 20 µM.
`COc1ccc2[nH]c(-c3ccc(OCC(=O)N4CCN(C(=O)OC(C)(C)C)CC4)c(OC)c3)nc2c1`: the IC50 is more than 20 µM.
Consider `COc1cc(-c2nc3cc(C)ccc3[nH]2)ccc1OCC(=O)N1CCN(c2ncccn2)CC1`, for which the IC50 came out at 7.93 µM.

Tested on in the next data set: not listed separately
Description: Cytotoxicity against NRK-52E cells assessed as inhibition in cell growth measured after 72 hrs by MTT assay. In kind it is toxicity, cell-based. As to conditions: rat.
As to `COc1cc(-c2nc3cc(C)ccc3[nH]2)ccc1OCC(=O)N1CCCC1`, the 50% inhibitory concentration (IC50) at 72 h is more than 100 µM.
The same measure, in the same setting: then `COc1cc(-c2nc3cc(C)ccc3[nH]2)ccc1OCC(=O)N1CCc2ccccc21`, with more than 100 µM; and `COc1cc(-c2nc3cc(F)ccc3[nH]2)ccc1OCC(=O)N1CCN(c2ncccn2)CC1`, with more than 100 µM; and `COc1ccc2[nH]c(-c3ccc(OCC(=O)N4CCCCC4)c(OC)c3)nc2c1`, with more than 100 µM.
On the same count and under the same terms, the same measure for `COc1ccc2[nH]c(-c3ccc(OCC(=O)N4CCc5ccccc5C4)c(OC)c3)nc2c1`: 20.5 µM; for `COc1cc(-c2nc3cc(F)ccc3[nH]2)ccc1OCC(=O)N1CCN(C(=O)OC(C)(C)C)CC1`: more than 100 µM.
The same measure, in the same setting: the same measure for `COc1cc(-c2nc3cc(F)ccc3[nH]2)ccc1OCC(=O)N1CCc2ccccc2C1`: more than 100 µM; for `COc1ccc2[nH]c(-c3ccc(OCC(=O)N4CCN(c5ncccn5)CC4)c(OC)c3)nc2c1`: more than 100 µM.
`COc1ccc2[nH]c(-c3ccc(OCC(=O)N4CCc5ccccc54)c(OC)c3)nc2c1`: the half-maximal inhibitory concentration (IC50) at 72 h was more than 100 µM.
For `COc1cc(-c2nc3ccccc3[nH]2)ccc1OCC(=O)N1CCc2ccccc2C1`, the 50% inhibitory concentration (IC50) at 72 h was more than 100 µM.
Still for that read-out and setting: the same measure for `COc1cc(-c2nc3cc(C)ccc3[nH]2)ccc1OCC(=O)N1CCCCC1`: more than 100 µM; for `COc1ccc2[nH]c(-c3ccc(OCC(=O)N4CCN(C(=O)OC(C)(C)C)CC4)c(OC)c3)nc2c1`: more than 100 µM.
Still for that read-out and setting: the same measure for `COc1cc(-c2nc3cc(C)ccc3[nH]2)ccc1OCC(=O)N1CCN(c2ncccn2)CC1`: more than 100 µM.

The test system of another data set is SK-MEL-28. Description: Anticancer activity against human SK-MEL-28 cells assessed as inhibition in cell growth measured after 72 hrs by MTT assay. In kind it is functional, cell-based. As to conditions: SK-MEL-28, 72 h.
As for `COc1cc(-c2nc3cc(C)ccc3[nH]2)ccc1OCC(=O)N1CCCC1`, the half-maximal inhibitory concentration (IC50) is more than 20 µM.
On the same count and under the same terms, then `COc1cc(-c2nc3cc(C)ccc3[nH]2)ccc1OCC(=O)N1CCc2ccccc21`, with more than 20 µM; and `COc1cc(-c2nc3cc(F)ccc3[nH]2)ccc1OCC(=O)N1CCN(c2ncccn2)CC1`, with 7.71 µM.
Still for that read-out and setting: the same measure for `COc1ccc2[nH]c(-c3ccc(OCC(=O)N4CCCCC4)c(OC)c3)nc2c1`: more than 20 µM; for `COc1ccc2[nH]c(-c3ccc(OCC(=O)N4CCc5ccccc5C4)c(OC)c3)nc2c1`: 2.95 µM.
On to `COc1cc(-c2nc3cc(F)ccc3[nH]2)ccc1OCC(=O)N1CCN(C(=O)OC(C)(C)C)CC1`, for which the concentration for half-maximal inhibition (IC50) was more than 20 µM.
The same measure, in the same setting: then `COc1cc(-c2nc3cc(F)ccc3[nH]2)ccc1OCC(=O)N1CCc2ccccc2C1`, with 8.59 µM; and `COc1ccc2[nH]c(-c3ccc(OCC(=O)N4CCN(c5ncccn5)CC4)c(OC)c3)nc2c1`, with 6.13 µM; and `COc1ccc2[nH]c(-c3ccc(OCC(=O)N4CCc5ccccc54)c(OC)c3)nc2c1`, with 3.32 µM.
Still for that read-out and setting: then `COc1cc(-c2nc3ccccc3[nH]2)ccc1OCC(=O)N1CCc2ccccc2C1`, with more than 20 µM.
On the same count and under the same terms, then `COc1cc(-c2nc3cc(C)ccc3[nH]2)ccc1OCC(=O)N1CCCCC1`, with more than 20 µM.
With `COc1ccc2[nH]c(-c3ccc(OCC(=O)N4CCN(C(=O)OC(C)(C)C)CC4)c(OC)c3)nc2c1`, the IC50 was more than 20 µM.
On the same count and under the same terms, then `COc1cc(-c2nc3cc(C)ccc3[nH]2)ccc1OCC(=O)N1CCN(c2ncccn2)CC1`, with 5.42 µM.
